According to paper PMC9411704, “Assessment of the Carcinogenic Potential of Pretomanid in Transgenic Tg.rasH2 Mice” (International Journal of Toxicology, 2022):
Like-named read-outs stand apart in the source and are kept apart here. Marks after values point to notes of the source that are not given here.

Key:
[1] = set-up: method as in Drug Prescribing information; settings: ref Drug Prescribing information; cited from earlier work
Rats = test system: Rats; set-up: method as in Drug Prescribing information; settings: ref Drug Prescribing information; cited from earlier work
Mice = test system: Mice; set-up: method as in Drug Prescribing information; settings: ref Drug Prescribing information; cited from earlier work
Tg.rasH2 mice = settings: for Incidence of lung adenoma, single / Incidence of lung carcinoma / Incidence of lung adenoma, multiple / Incidence of lung tumors, combined: three IP injections of 1000 mg/kg/day urethane; for Incidence of lung adenoma, multiple / Incidence of lung tumors, combined: P < 0.01; for Mean body weight / Mean food consumption: (SD)
Procedure: The vehicle was 0.5% carboxymethylcellulose (CMC) with 0.1% Tween 80 (v/v). The vehicle and pretomanid formulations were administered to mice by oral gavage once daily at a dosing volume of 10 mL/kg. Individual dose volumes were calculated based on each animal’s most recently recorded body weight. The dose formulations were magnetically stirred at room temperature for at least 30 minutes prior to and during dosing. The positive control was urethane in 0.9% sodium chloride and was administered via intraperitoneal injection for a total of three times. The positive control formulation was allowed to stand at room temperature for at least 30 minutes and inverted several times prior to dose administration. Aliquots (0.5 to 1.0 mL) were collected from the top, bottom, and middle of the first (week 1), interim (week 13), and last (week 25) pretomanid dose formulations to assess the accuracy of the concentration and/or homogeneity.
Male and female Tg.rasH2 [CByB6F1-Tg(HRAS)2Jic (+/−hemizygous c-Ha-ras)] mice (n = 110/sex) approximately 5 weeks of age were assigned to the main cohort groups to assess carcinogenicity. Male and female wild type CByB6F1 mice [CByB6F1-Tg(HRAS)2Jic (−/−homozygous c-Ha-ras)] (n = 34/sex) approximately 6 weeks of age were assigned to the cohort of mice used to assess the toxicokinetics of pretomanid and its M50 metabolite. […] All mice were obtained from Taconic Biosciences (Germantown, NY). The supplier verified that the mice were murine pathogen-free and females were nulliparous and non-pregnant. At the time of dosing initiation (Day 1), the toxicokinetic mice were approximately 8 weeks of age. On Day 1 of the study, the body weights of the main cohort mice ranged from 19.2 to 25.9 grams (males) and from 15.9 to 20.4 grams (females), and the body weights of the TK cohort mice ranged from 23.4 to 30.2 grams (males) and from 17.6 to 23.5 grams (females).
This study assessed the carcinogenic potential of pretomanid following repeated oral gavage administration once daily for 26 weeks in hemizygous Tg.rasH2 [CByB6F1-Tg(HRAS)2Jic (+/− hemizygous c-Ha-ras)] mice. This study also evaluated the TK profile of pretomanid and metabolite M50 in wild-type CByB6F1 [CByB6F1-Tg(HRAS)2Jic (−/−homozygous c-Ha-ras)] mice. The study was conducted under GLP regulations.
For carcinogenicity assessment (main cohort), 25 mice/sex were included in the vehicle control and pretomanid-treated groups. At the time of dosing initiation (Day 1), the main cohort mice used for assessing carcinogenicity were approximately 7 weeks of age and weighed between 15.9 to 20.4 g (females) and 19.2 to 25.9 g (males). Male groups (Groups 2, 4, and 6) received pretomanid in vehicle at doses of 5, 15, and 40 mg/kg/day, respectively. Female groups (Groups 3, 5, and 7) received pretomanid in vehicle at doses of 10, 30, and 80 mg/kg/day. Positive control mice (n = 10/sex) were included in the main cohort and received three intraperitoneal injections of urethane in saline (1000 mg/kg/injection) on Days 1, 3, and 5. The test and control articles were administered at a dose volume of 10 mL/kg body weight.
Clinical signs, body weights, and food consumption were assessed for the main cohort animals to monitor animal health and any potential toxicity from pretomanid administration. In-life measurements were recorded in Provantis™ Version 9.4.6.3 (Instem, Philadelphia, PA).
All animals, including those in the TK cohort, were observed twice daily for morbidity and mortality. For animals in the main cohort, cage side observations were performed on the day of dosing within 2 hours after the last animal in each group was dosed (Days 1, 3, and 5 for positive control animals).

O=C(Cn1ccnc1[N+](=O)[O-])NCc1ccccc1 [Benznidazole]
Genotoxicity [1]: Positive in vitro and in vivo

CCN(CC)C(=O)/C(C#N)=C/c1cc(O)c(O)c([N+](=O)[O-])c1 [Entacapone]
Carcinogenicity in rats (Rats): Carcinogenic | Carcinogenicity in mice (Mice): Not carcinogenic | Genotoxicity [1]: Positive in vitro, negative in vivo

Cc1ncc([N+](=O)[O-])n1CCO [Metronidazole]
Genotoxicity [1]: Positive in vitro, negative in vivo

O=C1CN(/N=C/c2ccc([N+](=O)[O-])o2)C(=O)N1 [Nitrofurantion]
Carcinogenicity in rats (Rats): Not carcinogenic in Holtzman rats or Sprague-Dawley rats, carcinogenic in male F344/N rats | Carcinogenicity in mice (Mice): Not carcinogenic in Swiss or BDF mice, carcinogenic in female B6C3F1 mice | Genotoxicity [1]: Positive in vitro, negative in vivo

CCOC(N)=O [Positive control, urethane]
Incidence of lung adenoma, single (Tg.rasH2 mice; female): 0% | Incidence of lung carcinoma (Tg.rasH2 mice; female): 0% | Incidence of lung adenoma, multiple (Tg.rasH2 mice; female): 100%* | Incidence of lung tumors, combined (Tg.rasH2 mice; female): 100%* | Mean body weight (Tg.rasH2 mice; female, urethane 1000 mg/kg IP Days 1, 3, 5, study day 1): 17.89 (0.57) Grams | Mean body weight (Tg.rasH2 mice; female, urethane 1000 mg/kg IP Days 1, 3, 5, study day 29): 19.81 (0.58) Grams | Mean body weight (Tg.rasH2 mice; female, urethane 1000 mg/kg IP Days 1, 3, 5, study day 57): 22.11 (0.68) Grams | Mean food consumption (Tg.rasH2 mice; female, urethane 1000 mg/kg IP Days 1, 3, 5, study days 1-8): 3.313 (1.048) Grams/Day | Mean food consumption (Tg.rasH2 mice; female, urethane 1000 mg/kg IP Days 1, 3, 5, study days 29-36): 6.218 (1.222) Grams/Day | Mean food consumption (Tg.rasH2 mice; female, urethane 1000 mg/kg IP Days 1, 3, 5, study days 57-64): 4.210 (0.524) Grams/Day | Incidence of lung adenoma, single (Tg.rasH2 mice; male): 0% | Incidence of lung carcinoma (Tg.rasH2 mice; male): 0% | Incidence of lung adenoma, multiple (Tg.rasH2 mice; male): 100%* | Incidence of lung tumors, combined (Tg.rasH2 mice; male): 100%* | Mean body weight (Tg.rasH2 mice; male, urethane 1000 mg/kg IP Days 1, 3, 5, study day 1): 21.99 (0.71) Grams | Mean body weight (Tg.rasH2 mice; male, urethane 1000 mg/kg IP Days 1, 3, 5, study day 29): 24.81 (1.41) Grams | Mean body weight (Tg.rasH2 mice; male, urethane 1000 mg/kg IP Days 1, 3, 5, study day 57): 27.73 (1.74) Grams | Mean food consumption (Tg.rasH2 mice; male, urethane 1000 mg/kg IP Days 1, 3, 5, study days 1-8): 2.894 (0.461) Grams/Day | Mean food consumption (Tg.rasH2 mice; male, urethane 1000 mg/kg IP Days 1, 3, 5, study days 29-36): 4.044 (0.374) Grams/Day | Mean food consumption (Tg.rasH2 mice; male, urethane 1000 mg/kg IP Days 1, 3, 5, study days 57-64): 3.956 (0.359) Grams/Day | Clinical signs (Tg.rasH2 mice; urethane 1000 mg/kg IP Days 1, 3, 5): ataxia and decreased motor activity | Body weight change (Tg.rasH2 mice; urethane 1000 mg/kg IP, first week of the study): weight loss | Incidence of alveolar bronchiolar adenomas (Tg.rasH2 mice; urethane, each sex, P < 0.01 vs vehicle control): 100%
